In US9737544B2, “Compounds” (ASTEX THERAPEUTICS LIMITED, priority 2012, dated 2017):

Assays:
Type in all cases: cell-based
[1] = tested on: Ba/F3-FGFR3-transfected cells; assay: Ba/F3-FGFR3 (minus IL3 or plus IL3) cellular proliferation assay; conditions: 24 h, read-out: BAF3-FGFR3 (MIN IL3) pIC50 (converted)
[2] = tested on: Ba/F3-FGFR1-transfected cells; assay: Ba/F3-FGFR1 (minus IL3 or plus IL3) cellular proliferation assay; conditions: 24 h, read-out: BAF3-FGFR1 (MIN IL3) pIC50 (converted)
[3] = tested on: Ba/F3-FGFR4-transfected cells; assay: Ba/F3-FGFR4 cellular proliferation assay; conditions: 24 h, read-out: BAF3-FGFR 4 pIC50 (converted)
[4] = tested on: Ba/F3-KDR-transfected cells; assay: Ba/F3-KDR (minus IL3 or plus IL3) cellular proliferation assay; conditions: 24 h, read-out: BAF3-KDR (MIN IL3) pIC50 (converted)

| Compound | IC50 [1] [µM] | IC50 [2] [µM] | IC50 [3] [µM] | IC50 [4] [µM] |
| --- | --- | --- | --- | --- |
| COc1cccc(C(=O)c2cc3cc(-c4cnn(C)c4)cnc3cn2)c1 [Compound 26] | > 10 | > 10 | > 10 |  |
| COc1cc(OC)cc(C(=O)c2ccc3ncc(N4CCOCC4)cc3n2)c1 [Compound 20] |  | > 10 | > 10 | > 10 |
| COc1cc(OC)cc(C(Cc2nccn2S(=O)(=O)N(C)C)c2ccc3ncc(-c4cnn(C)c4)nc3n2)c1 (stereo not shown) [Compound 15] |  |  |  | > 10 |
| COc1cccc(C(=O)c2ccc3ncc(-c4cnn(C)c4)cc3n2)c1 [Compound 16] |  | > 10 |  | > 10 |
| CCOC(=O)CC(c1cc(OC)cc(OC)c1)c1cc2cc(-c3cnn(C)c3)cnc2cn1 (stereo not shown) [Compound 24] | > 10 | > 10 | > 10 | > 10 |
| COc1cccc(C(O)c2ccc3ncc(-c4cnn(C)c4)cc3n2)c1 (stereo not shown) [Compound 17] |  | > 10 |  | > 10 |
| COc1cc(OC)cc(C(O)c2ccc3ncc(-c4cnn(C)c4)cc3n2)c1 (stereo not shown) [Compound 10] |  |  |  | > 10 |
| COc1cc(OC)cc(C(=O)c2ccc3ncc(-c4cnn(C)c4)cc3n2)c1 [Compound 8] |  |  | > 10 | > 10 |
| COc1cc(OC)cc(C(CCO)c2ccc3ncc(-c4cnn(C)c4)nc3n2)c1 (stereo not shown) [Compound 14] |  |  |  | > 10 |
| COC(=O)CC(c1cc(OC)cc(OC)c1)c1ccc2ncc(-c3cnn(C)c3)nc2n1 (stereo not shown) [Compound 4] |  |  | > 10 | > 10 |
| COc1cc(OC)cc(C(=O)c2cc3cc(-c4cnn(C)c4)cnc3cn2)c1 [Compound 23] |  | > 10 | > 10 | > 10 |
| COc1cc(OC)cc(C(OCCO)c2ccc3ncc(-c4cnn(C)c4)cc3n2)c1 (stereo not shown) [Compound 11] |  |  |  | > 10 |
| COc1cc(OC)cc(C(O)c2ccc3ncc(-c4cnn(C)c4)nc3n2)c1 (stereo not shown) [Compound 2] |  |  |  | > 10 |
| COc1cc(OC)cc(C(C)(O)c2ccc3ncc(-c4cnn(C)c4)nc3n2)c1 (stereo not shown) [Compound 3] |  | > 10 |  | > 10 |
| CCOC(=O)CC(c1cc(OC)cc(OC)c1)c1ccc2ncc(N3CCOCC3)cc2n1 (stereo not shown) [Compound 21] |  | > 10 | > 10 | > 10 |
